In assay [1] the target is T1, 4-HPA hydroxylase of K. pneumoniae (Klebsiella oxytoca, UniProt Q48440).
T1 construct: expressed in transfected cells; host or cells: E. coli CC118 (K-12) transformed with pG260 = E. coli P260 (CECT 4627)
As to the kind of experiment: Hidroxylase activity expressed by E. coli P260 on different aromatic compounds. The class given is biochemical. On the set-up: concentration or dose not given beside the values. The conditions noted are these: compound as organic substrate of the enzyme expressed by E. coli P260. The text has this: (§1) By means of hydroxylation, this enzyme transforms 3-HPA and 4-HPA into 3,4-DHPA which, after the subdequent action of a dioxygenase, loses its aromaticity. For the isolation of these genes, the chromosomic DNA of K. pneumoniae was isolated and digested with the restriction enzyme Bam Hl. As a cloning vector the plasmid pUC18Not was chosen (Herrero et al., 1990; J. Bacteriol. 72:6557-67), digested with BamHl and dephosphorilated. Bonding mixtures were used in the transformation of the mutant strain W-21 of E. coli (Lacrec A), a mutant deficient in the 4-HPA hydroxylase enzyme. The transformants were select on plates that contained ampicillin (100 µg/ml), IPTG and X-Gal and subsequently on selected media with Ampicillin and 4-HPA as the sole source of carbon and energy. A recombinant plasmid complemented the 4-HPA mutation of E. coli W-21 and treating this transformant with acridin orange caused reversion to the mutant phenotype (due to loss of plasmids). […] Synthesis of the enzyme was checked by determining enzymatic activity in "standard" conditions, by means of a spectrophotometric test (Martin et al., 1991; J. Gen. Microbiol. 132: 621-628). In this way it was established that the enzyme synthesized constitutively in the strains of E. coli derived from K-12 (strains incapable of metabolizing 4-HPA because they lack all the genes of the degradative route), unlike what occurs in K. pneumoniae M5a1 or E. coli W, where synthesis of the enzyme is inducible by 3-HPA and/or 4-HPA. The E. coli K-12 (E. coli CC118) strains, transformed by the recombinant plasmid, were called E. coli P260. […]
The E. coli P260 cultures produced a blackish brown pigmentation in LB or BHI as a consequence of the expression of the cloned genes. […] To investigate this hypothesis, several aromatic compounds were analyzed, different from 3-HPA and 4-HPA, as possible substrates of the enzyme (Table 2).

The next assay has as its system E. coli W-P260 strain. The experiment in a line: Biodegradation (mineralization) of the aromatic compound by a growing culture, 14C-CO2 trapping and HPLC. The format is cell-based. The settings on record: minimum PJC medium with glycerol and 4-HPA 2.5 mM, 30°C, 200 rpm. On the procedure:
In a test experiment, the following procedure was carried out: the E. coli W-P260 strain (obtained by transformation of the E. coli W-21 strain, mutant in hpa genes) was grown in a minimum PJC medium supplemented with glycerol and 4-HPA 2.5 mM (10% of which was marked with ^14C in the aromatic ring). Incubation was carried out at 30°C and with stirring (200 rpm). In order to quantify the biotransformation of the aromatic ring, the CO2 formed during the process was collected on NaOH 1N located in the lid of the matrass so that it would act as a trapping agent. Samples were taken at different times (Figure 3) so as to evaluate the formation of biomass (DO 680), release of CO2 (cpm) and the disappearance of 4 HPA (measurement of concentration by HPLC). In Figure 3 it may be observed how the mineralization capacity of the E. coli W-P260 strain achieves mineralization of the aromatic compound in 12 hours.

The next assay relates to 4-HPA hidroxylase. As to the kind of experiment: 4-HPA hydroxylase activity of strains, spectrophotometric test in standard conditions. The class given is biochemical, K. pneumoniae.
Description: as §1

T1 sequence (Q48440 whole entry): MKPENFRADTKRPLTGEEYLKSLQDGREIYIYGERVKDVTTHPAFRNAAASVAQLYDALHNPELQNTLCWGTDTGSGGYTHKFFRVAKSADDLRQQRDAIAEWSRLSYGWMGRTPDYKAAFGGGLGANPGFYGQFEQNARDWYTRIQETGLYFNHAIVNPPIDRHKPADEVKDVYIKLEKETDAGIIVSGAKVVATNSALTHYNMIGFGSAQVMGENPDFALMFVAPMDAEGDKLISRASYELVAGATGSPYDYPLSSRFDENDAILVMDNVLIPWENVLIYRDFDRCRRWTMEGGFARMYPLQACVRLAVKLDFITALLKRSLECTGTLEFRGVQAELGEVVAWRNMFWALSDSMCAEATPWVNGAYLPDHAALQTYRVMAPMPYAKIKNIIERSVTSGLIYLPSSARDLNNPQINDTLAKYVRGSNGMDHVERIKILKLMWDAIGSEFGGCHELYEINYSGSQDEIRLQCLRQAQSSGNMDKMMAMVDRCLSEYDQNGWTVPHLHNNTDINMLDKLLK

Turning to `O=C(O)Cc1ccc(O)cc1` [4-HPA, 4-hydroxyphenylacetate], the “% ACTIVITY” value in assay [1] is listed as 100%. In the assay with E. coli W-P260 strain, the “mineralization of the aromatic compound” value worked out at 12 h.
As for `O=C(O)c1ccc(O)c(O)c1` [3,4-DHBA, 3,4-Dihydroxybenzoate], in assay [1], the “% ACTIVITY” value was found to be 30%.
With `O=C(O)Cc1ccccc1O` [2-HPA, 2-Hydroxyphenylacetate], the “% ACTIVITY” value in assay [1] is listed as < 5%.
Same read-out and setting: to `O=C(O)c1ccc(O)cc1` [4-HBA, 4-Hydroxybenzoate] belongs 15%.
Still for that read-out and setting: next, `O=C(O)Cc1ccc(O)c(O)c1` [3,4-DHPA, 3,4-dihydroxyphenylacetate]: 50%.
On to `O=C(O)Cc1ccccc1` [PA, Phenylacetic acid], for which, in assay [1], the “% ACTIVITY” value is recorded as < 5%.
Regarding `N[C@@H](Cc1ccc(O)cc1)C(=O)O` [L-Tyr, L-Tyrosine], in assay [1], the “% ACTIVITY” value is 8%.
On the same count and under the same terms, next, `N[C@@H](Cc1ccc(O)c(O)c1)C(=O)O` (racemic) [L-Dopa, DL-Dihydroxyphenylalanin]: 10%; `Oc1ccccc1O` [Catecol]: 30%.
Turning to `O=C(O)Cc1cccc(O)c1` [3-HPA], the 4-HPA hidroxylase is <1 in the assay on 4-HPA hidroxylase (strain E. coli CC118, substrate growth Gly/4-HPA); 50±6 with 4-HPA hidroxylase (strain E. coli P260, substrate growth Gly/4-HPA/Ap); 57±9 in the assay on 4-HPA hidroxylase (strain E. coli P260, substrate growth LB/Ap); 28±5 with 4-HPA hidroxylase (strain E. coli W-21 (plasmid), substrate growth Gly/4-HPA/Ap); <5 with 4-HPA hidroxylase (strain E. coli W-21 (plasmid), substrate growth LB/Ap); <1 with 4-HPA hidroxylase (strain E. coli W-21, substrate growth Gly/4-HPA). In addition, the 4-HPA hidroxylase in the assay with 4-HPA hidroxylase (strain K. pneumoniae M5a1, substrate growth 4-HPA) is reported as 26±9; in the assay with 4-HPA hidroxylase (strain K. pneumoniae M5a1, substrate growth LB), <1. The “% ACTIVITY” value in assay [1] was 100%.
